Experimental data from patent publication US8785467B2, “Alkoxy pyrimidine PDE10 inhibitors” (Merck Sharp & Dohme Corp., priority 2010, dated 2014).
pKi: −log10 of the molar value.

Biological target: human PDE10A2 (Homo sapiens (Human), UniProt Q9Y233)
Assay: PDE10 fluorescence polarization (IMAP FP) inhibition assay
Type: biochemical
Details: human PDE10A2 from transfected AD293 cell lysate, FAM-labeled cAMP 50 nM, room temperature; read-out: PDE10A Ki
Method: The activity of the compounds in accordance with the present invention as PDE10 inhibitors may be readily determined without undue experimentation using a fluorescence polarization (FP) methodology that is well known in the art (Huang, W., et al., J. Biomol Screen, 2002, 7: 215).
In a typical experiment the PDE10 inhibitory activity of the compounds of the present invention was determined in accordance with the following experimental method. PDE10A2 was amplified from human fetal brain cDNA (Clontech, Mountain View, Calif.) using a forward primer corresponding to nucleotides 56-77 of human PDE10A2 (Accession No. AF127480, Genbank Identifier 4894716), containing a Kozak consensus sequence, and a reverse primer corresponding to nucleotides 2406-2413 of human PDE10A2 (Accession No. AF 127480, Genbank Identifier 4894716). Amplification with Easy-A polymerase (Stratagene, La Jolla, Calif.) was 95° C. for 2 minutes followed by thirty three cycles of 95° C. for 40 seconds, 55° C. for 30 seconds, and 72° C. for 2 minutes 48 seconds. Final extension was 72° C. for 7 minutes. The PCR product was TA cloned into pcDNA3.2-TOPO (Invitrogen, Carlsbad, Calif.) according to standard protocol. AD293 cells with 70-80% confluency were transiently transfected with human PDE10A2/pcDNA3.2-TOPO using Lipofectamine 2000 according to manufacturer specifications (Invitrogen, Carlsbad, Calif.). Cells were harvested 48 hours post-transfection and lysed by sonication (setting 3, 10×5 sec pulses) in a buffer containing 20 mM HEPES, 1 mM EDTA and protease inhibitor cocktail (Roche). Lysate was collected by centrifugation at 75,000×g for 20 minutes. Supernatant containing the cytoplasmic fraction was used for evaluation of PDE10A2 activity. The fluorescence polarization assay for cyclic nucleotide phosphodiesterases was performed using an IMAP® FP kit supplied by Molecular Devices, Sunnyvale, Calif. (product #R8139). IMAP® technology has been applied previously to phosphodiesterase assays (Huang, W., et al., J. Biomol Screen, 2002, 7: 215). Assays were performed at room temperature in 384-well microtiter plates with an incubation volume of 20.2 μL. Solutions of test compounds were prepared in DMSO and serially diluted with DMSO to yield 8 μL of each of 10 solutions differing by 3-fold in concentration, at 32 serial dilutions per plate. 100% inhibition is determined using a known PDE10 inhibitor, which can be any compound that is present at 5,000 times its Ki value in the assay described as follows, such as papaverine (see Siuciak, et al. Neuropharmacology (2006) 51:386-396; Becker, et al. Behav Brain Res (2008) 186(2):155-60; Threlfell, et al., J Pharmacol Exp Ther (2009) 328(3):785-795), 2-{4-[pyridin-4-yl-1-(2,2,2-trifluoroethyl)-1H-pyrazol-3-yl]phenoxymethyl}quinoline succinic acid or 2-[4-(1-methyl-4-pyridin-4-yl-1H-pyrazol-3-yl)-phenoxymethyl]quinoline succinic acid (see Schmidt, et al. J Pharmacol Exp Ther (2008) 325:681-690; Threlfell, et al., J Pharmacol Exp Ther (2009) 328(3): 785-795). 0% of inhibition is determined by using DMSO (1% final concentrations).
A Labcyte Echo 555 (Labcyte, Sunnyvale, Calif.) is used to dispense 200 nL from each well of the titration plate to the 384 well assay plate. A solution of enzyme ( 1/1600 dilution from aliquots; sufficient to produce 20% substrate conversion) and a separate solution of FAM-labeled cAMP PDE from Molecular Devices (product #R7506), at a final concentration of 50 nM are made in the assay buffer (10 mM Tris HCl, pH 7.2, 10 mM MgCl2, 0.05% NaN3 0.01% Tween-20, and 1 mM DTT). The enzyme and the substrate are then added to the assay plates in two consecutive additions of 10 μL, and then shaken to mix. The reaction is allowed to proceed at room temperature for 30 minutes. A binding solution is then made from the kit components, comprised of 80% Solution A, 20% Solution B and binding reagent at a volume of 1/600 the total binding solution. […]

human PDE10A2, sequence (Q9Y233 267-1055): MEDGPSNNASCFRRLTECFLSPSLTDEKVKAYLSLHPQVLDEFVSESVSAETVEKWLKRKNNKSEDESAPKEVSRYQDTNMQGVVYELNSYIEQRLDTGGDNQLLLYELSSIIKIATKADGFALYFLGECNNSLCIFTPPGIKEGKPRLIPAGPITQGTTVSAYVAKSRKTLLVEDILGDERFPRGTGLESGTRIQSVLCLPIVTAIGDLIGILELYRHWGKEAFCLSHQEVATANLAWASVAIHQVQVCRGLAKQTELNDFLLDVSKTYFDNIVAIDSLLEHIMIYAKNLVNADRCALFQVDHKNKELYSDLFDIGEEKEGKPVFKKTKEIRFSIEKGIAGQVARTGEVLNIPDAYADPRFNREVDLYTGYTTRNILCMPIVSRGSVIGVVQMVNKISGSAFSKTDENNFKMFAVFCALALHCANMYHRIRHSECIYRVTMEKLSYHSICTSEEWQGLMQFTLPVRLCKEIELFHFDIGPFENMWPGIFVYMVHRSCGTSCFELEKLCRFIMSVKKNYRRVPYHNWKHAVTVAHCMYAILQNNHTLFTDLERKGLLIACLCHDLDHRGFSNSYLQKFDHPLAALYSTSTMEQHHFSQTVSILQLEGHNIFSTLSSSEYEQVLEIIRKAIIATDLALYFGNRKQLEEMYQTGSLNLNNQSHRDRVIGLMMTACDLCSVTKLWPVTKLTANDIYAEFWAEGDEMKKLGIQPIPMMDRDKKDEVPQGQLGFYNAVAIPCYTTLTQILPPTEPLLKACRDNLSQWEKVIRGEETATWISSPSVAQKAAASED

| Structure (SMILES) | pKi |
| --- | --- |
| Cc1nc(C)c(CNc2nc(OC[C@H]3C[C@@H]3c3ccccn3)nc(Cl)c2C)s1 (stereo in doubt) [Compound 1-20, 6-chloro-N-[(2,4-dimethyl-1,3-thiazol-5-yl)methyl]-5-methyl-2-{[2-pyridin-2-ylcyclopropyl]methoxy}pyrimidin-4-amine] | 10.72 |
| Cc1c(Cl)nc(OC[C@@H]2C[C@H]2c2ccccn2)nc1NCc1cnn(C)c1 (stereo in doubt) [Compound 1-39, 6-chloro-5-methyl-N-[(1-methyl-1H-pyrazol-4-yl)methyl]-2-{[2-(pyridin-2-yl)cyclopropyl]methoxy}pyrimidin-4-amine] | 9.36 |
| Cn1cc(CNc2cc(C#N)nc(OC[C@H]3C[C@@H]3c3ccccn3)n2)cn1 (stereo in doubt) [Compound 1-41, 6-((1-methyl-1H-pyrazol-4-yl)methylamino)-2-((2-(pyridin-2-yl)cyclopropyl)methoxy)pyrimidin-4-carbonitrile] | 7.46 |
| Cc1c(NCc2cnn(C)c2)nc(OC[C@H]2C[C@@H]2c2ccccn2)nc1N(C)C (stereo in doubt) [Compound 1-44, N4,N4,5-trimethyl-N6-((1-methyl-1H-pyrazol-4-yl)methyl)-2-((2-(pyridin-2-yl)cyclopropyl)methoxy)pyrimidine-4,6-diamine] | 7.28 |
| Cc1c(Cl)nc(OCCCc2ccc3ncccc3n2)nc1NCc1cnn(C)c1 [Compound 1-21, 6-chloro-5-methyl-N-[(1-methyl-1H-pyrazol-4-yl)methyl]-2-[3-(1,5-naphthyridin-2-yl)propoxy]pyrimidin-4-amine] | 8.68 |
| Cc1nc(C)c(CNc2nc(OCCCc3ccc4ccccc4n3)nc(Cl)c2C)s1 [Compound 1-29, 6-chloro-N-[(2,4-dimethyl-1,3-thiazol-5-yl)methyl]-5-methyl-2-(3-quinolin-2-ylpropoxy)pyrimidin-4-amine] | 11.10 |
| Cc1nc(C)c(CNc2nc(OCCc3ccccn3)nc(C#N)c2C)s1 [Compound 1-42, 6-((2,4-dimethylthiazol-5-yl)methylamino)-5-methyl-2-(2-(pyridin-2-yl)ethoxy)pyrimidine-4-carbonitrile] | 7.00 |
| Cc1nc(C)c(CNc2nc(OC[C@H]3C[C@@H]3c3ccc4ncccc4n3)nc(Cl)c2C)o1 [Compound 1-48, 2-(((1S,2S)-2-(1,5-naphthyridin-2-yl)cyclopropyl)methoxy)-6-chloro-N-((2,4-dimethyloxazol-5-yl)methyl)-5-methylpyrimidin-4-amine] | 9.31 |
| COc1ccc([C@H]2C[C@@H]2COc2nc(Cl)c(C)c(NCc3cnn(C)n3)n2)nc1 [Compound 1-50] | 9.11 |

Further compounds by rising pKi, results first:

| pKi | Structure (SMILES) |
| --- | --- |
| 8.09 | Cc1c(Cl)nc(OC[C@H]2C[C@@H]2c2ccc3ncccc3n2)nc1NCc1nc(C)n(C)n1 [Compound 1-47, 2-(((1S,2S)-2-(1,5-naphthyridin-2-yl)cyclopropyl)methoxy)-6-chloro-N-((1,5-dimethyl-1H-1,2,4-triazol-3-yl)methyl)-5-methylpyrimidin-4-amine] |
| 8.19 | Cc1nc(C)c(CNc2nc(OC[C@H]3C[C@@H]3c3ccccn3)nc(-c3ncco3)c2C)s1 (stereo in doubt) [Compound 1-46, N-((2,4-dimethylthiazol-5-yl)methyl)-5-methyl-6-(oxazol-2-yl)-2-((2-(pyridin-2-yl)cyclopropyl)methoxy)-pyrimidin-4-amine] |
| 8.66 | Cc1nc(CNc2nc(OC[C@H]3C[C@@H]3c3ccc4ncccc4n3)nc(Cl)c2C)n(C)n1 [Compound 1-49, 2-(((1S,2S)-2-(1,5-naphthyridin-2-yl)cyclopropyl)methoxy)-6-chloro-N-((1,3-dimethyl-1H-1,2,4-triazol-5-yl)methyl)-5-methylpyrimidin-4-amine] |
| 9.77 | CSc1nc(OC[C@H]2C[C@@H]2c2ccccn2)nc(NCc2cnn(C)c2)c1C (stereo in doubt) [Compound 1-43, 5-methyl-N-((1-methyl-1H-pyrazol-4-yl)methyl)-6-(methylthio)-2-((2-(pyridin-2-yl)cyclopropyl)methoxy)-pyrimidin-4-amine] |
| 10.24 | Cc1nc(C)c(CNc2nc(OC[C@H]3C[C@@H]3c3ccc4ncccc4n3)ncc2C)s1 [Compound 1-45, 2-(((1S,2S)-2-(1,5-naphthyridin-2-yl)cyclopropyl)methoxy)-N-((2,4-dimethylthiazol-5-yl)methyl)-5-methylpyrimidin-4-amine] |
| 10.40 | Cc1nc(C)c(CNc2nc(OCCOc3ccc4cccnc4n3)nc(Cl)c2C)s1 [Compound 1-32, 6-chloro-N-[(2,4-dimethyl-1,3-thiazol-5-yl)methyl]-5-methyl-2-[2-(1,8-naphthyridin-2-yloxy)ethoxy]pyrimidin-4-amine] |
| 10.64 | Cc1nc(C)c(CNc2nc(OCCCc3nc4ccccc4[nH]3)nc(Cl)c2C)s1 [Compound 1-27, 2-[3-(1H-benzimidazol-2-yl)propoxy]-6-chloro-N-[(2,4-dimethyl-1,3-thiazol-5-yl)methyl]-5-methylpyrimidin-4-amine] |
| 11.49 | Cc1cc(CNc2nc(OC[C@H]3C[C@@H]3c3ccc4ncccc4n3)nc(Cl)c2C)n(C)n1 [Compound 1-51, 2-(((1S,2S)-2-(1,5-naphthyridin-2-yl)cyclopropyl)methoxy)-6-chloro-N-((1,3-dimethyl-1H-pyrazol-5-yl)methyl)-5-methylpyrimidin-4-amine] |
